Measured values reported in the SangsterLogP compilation.

Assay: method code SF, from Hansch, C. & Leo, A. (1987). Log P database [Dataset]. Pomona College Medicinal Chemistry Project.
Conditions: not given

SMILES	logP
O=C(c1ccco1)C(O)c1ccco1 (stereo unspecified)	0.54
CC(=O)Nc1ccc(C(N)=O)cc1	0.01
FC(F)Oc1ccccc1	2.41
CCCCCN(CCCCC)/N=C/c1c2c(O)c3c(O)c(C)c4c(c3c1O)C(=O)C(C)(O/C=C\C(OC)C(C)C(OC(C)=O)C(C)C(O)C(C)C(O)C(C)/C=C\C=C(C)C(=O)N2)O4 (stereo unspecified)	3.47
O=S1(=O)NC(C2CCCCC2)=Nc2ccccc21	2.2
CCCCOc1ccc(C(N)=O)cc1	2.48
N#CCC(=O)Nc1ccc(Cl)c(Cl)c1	2.72
CN(C=O)c1ccc(S(=O)(=O)N(C)C)cc1	0.4
CN(N=Nc1ccc(C(N)=O)cc1)C(C)(C)C	2.61
CCOC(=O)N=[N+]([O-])c1ccccc1	2.53
CCC(C)NP(=O)(OC)Oc1cc(Cl)c(Cl)cc1Cl (stereo unspecified)	3.99
CCOC(=O)C(=Cc1ccc(OC)cc1)C(C)=O	2.46
COc1ccc(C=C(C(C)=O)C(C)=O)cc1	1.73
Cc1c(Cl)c(Cl)c(Cl)c(Cl)c1Cl	5.62
NC(=O)C(F)(F)F	0.12
O=S1(=O)NC=Nc2cc(Cl)ccc21	1.01
COC(=O)CNC(=O)c1ccc([N+](=O)[O-])cc1	0.98
CCCCCCCOC(=O)c1ccc(O)cc1	4.83
O=[N+]([O-])C=Cc1ccsc1	1.94
O=[N+]([O-])c1ccc(CCO)cc1	1.12
c1ccc2[nH]c(CCCCCCc3nc4ccccc4[nH]3)nc2c1	1.66
O=[N+]([O-])c1ccc2[nH]c(CCCc3nc4cc([N+](=O)[O-])ccc4[nH]3)nc2c1	1.62
O=c1[nH]cc(Cl)c(=O)[nH]1	-0.35
O=[N+]([O-])c1ccc2[nH]c(CCc3nc4cc([N+](=O)[O-])ccc4[nH]3)nc2c1	1.29
Cc1cccc(OC(=O)N(C)C)c1	2.05
O=C(Nc1ccc(Cl)c(Cl)c1)C1CC1	3.83

SMILES	logP
CC1=Nc2cc([N+](=O)[O-])c(Cl)cc2S(=O)(=O)N1	1.42
COCCC(=O)N(C)c1ccc(S(=O)(=O)N(C)C)cc1	0.33
CCCC1=Nc2cc(Cl)ccc2S(=O)(=O)N1	2.04
Nc1ccccc1Br	2.11
CC(=O)Nc1ccc(C(C)(C)C)cc1	3.05
CC(=S)Oc1ccccc1	1.91
Sc1ccccc1	2.52
COc1ccc2[nH]c(CC(O)c3nc4cc(OC)ccc4[nH]3)nc2c1 (stereo unspecified)	0.76
COc1cc(OC)c(OC)c2c1CC[C@H](NC(C)=O)c1cc(=O)c(NCc3ccccc3)ccc1-2	3.58
Cc1oc2ccccc2c(=O)c1C	2.31
OC/C=C/c1ccccc1	1.95
N#CN=[N+]([O-])c1cccc(Cl)c1	2.4
CCC(=O)OCCOc1ccc(C=O)cc1OC	1.33
CC(=O)C(=Cc1ccc(C)cc1)C(C)=O	2.14
COc1cc(C=O)ccc1OCCO	0.58
OCCC(F)(F)F	0.39
O=C1NC(c2cccc3ccccc23)Nc2ccccc21 (stereo unspecified)	2.96
CN(C)CCc1cccs1	1.99
CNC(=O)NCCSCc1nc[nH]c1C	-0.06
O=C(Nc1ccc(Cl)c(Cl)c1)C1CCCC1	4.47
O=C(O)COc1ccc(Cl)c([N+](=O)[O-])c1	1.85
CC(C)(C)c1ccccc1OCC(=O)O	3.33
CC(=O)N[C@@H]1CC(=O)N(c2ccc(Cl)cc2)C1=O	0.75
CN(C)C(=O)Oc1ccccc1	1.56
CCC1(CC)OC(=O)c2ccccc21	2.69
ONc1ccccc1	0.79

SMILES	logP
CN(C)/N=N/c1cccc(C(F)(F)F)c1	3.78
O=[N+]([O-])c1cccc(I)c1	2.94
O=S1(=O)N=C(C2CC=CCC2)Nc2ccccc21 (stereo unspecified)	2.05
N#CN/C(N)=N/c1ccccc1	1.05
CC(=O)Nc1cccc(C#N)c1	1.2
C[C@@H]1C[C@@H]([C@H](O)CC2CC(=O)NC(=O)C2)C(=O)[C@@H](C)C1	0.55
O=C(N[C@H](CO)[C@H](O)c1ccc(-c2ccccn2)cc1)C(F)(F)F	1.31
COc1cccc(OC)c1	2.21
O=NN(CCF)C(=O)NCCCl	0.95
O=C(Nc1ccccc1)N(c1ccccc1)c1ccccc1	3.28
OCCCC(F)(F)F	0.9
C#CC(C)(C)O	0.28
COC1C=COC2(C)Oc3c(C)c(O)c4c(O)c(c(/C=N\N5CCCCCCCCCC5)c(O)c4c3C2=O)NC(=O)/C(C)=C\C=C/C(C)C(O)C(C)C(O)C(C)C(OC(C)=O)C1C (stereo unspecified)	4.05
NC(=O)c1cccc(Br)c1	1.65
OC(c1ccccc1)(C(F)(F)F)C(F)(F)F	3.41
[O-][n+]1ccccc1SCc1ccccc1	1.24
CC(C)Oc1cn[nH]c1	1.13
CN(C)CCC1CN(C)C(=S)c2cccnc2O1 (stereo unspecified)	1.08
Nc1ccccc1S	1.43
Cc1cc(CSc2ccccc2Cl)c(O)c(C(=O)O)c1	4.69
CNc1nccn2cc(-c3ccc(S(C)=O)cc3OC)nc12 (stereo unspecified)	1.88
CCCCCCC1OC(=O)c2cc(N)ccc21 (stereo unspecified)	3.65
CCCCOC(=O)c1ccc(C(=O)OCCCC)cc1	5.53
O=[N+]([O-])c1ccc(N2CCCCC2)cc1	3.26
CCOC(=O)C(=Cc1ccc(Cl)cc1)C(=O)OCC	3.96
COc1cccc2c1C(=O)c1c(O)c3c(c(O)c1C2=O)C[C@@](O)(C(=O)CO)C[C@@H]3O	2.74

SMILES	logP
COC(=O)[C@@]12OC[C@@]34[C@H](C[C@@H]5C(C)=C(O)C(=O)C[C@]5(C)[C@H]3C(O)C1O)OC(=O)C(OC(=O)C=C(C)C(C)C)[C@@H]42 (stereo partly specified)	1.66
CC(=O)Nc1cccc(NC(C)=O)c1	0.5
O=[N+]([O-])c1ccc(C=Cc2nccs2)o1	1.97
O=C(/C=C/c1ccccc1)Nc1ccccc1	3.61
CCSC(=Cc1ccccc1)C(=O)NC(C)CC (stereo unspecified)	3.4
COc1cc(C=NOC(=O)c2cc(OC)c(OC)c(OC)c2)ccc1OCCO	2.7
O=C(O)COc1ccc(Cl)c(Cl)c1	2.81
C=CCc1cccc2c(=O)c(C)c(-c3ccccc3)oc12	4.67
c1ccc2c(c1)OCCO2	2.01
CCOP(=S)(OCC)N1C(=O)c2ccccc2C1=O	3.48
CSc1ccc(C=NN=C(N)NN)cc1	1.35
CCC1(c2ccccc2)CCC(=O)NC1=O (stereo unspecified)	1.9
CC1CO1 (stereo unspecified)	0.03
CC(=O)OCCC(=O)N(C)c1ccc(S(=O)(=O)N(C)C)cc1	0.26
CC1=NCCN1	0.52
O=NN(CCCl)C(=O)NC12CC3CC(CC(C3)C1)C2	3.56
CCOC(=O)/C(=C/c1c(Cl)cccc1Cl)C(C)=O	2.86
C[C@@H]1C[C@H]2[C@@H]3C[C@H](F)C4=CC(=O)C=C[C@]4(C)[C@@]3(F)[C@@H](O)C[C@]2(C)[C@@]1(O)C(=O)COC(=O)C(C)(C)C	3.86
CCC(C)c1ccccc1OCC(=O)O (stereo unspecified)	3.32
C1=CCCCC1	2.86
CC(C)Cl	1.9
CCOCCOC(=O)C(C#N)=C(CC)Nc1ccc([N+](=O)[O-])cc1	2.6
FC(F)OC(Cl)C(F)(F)F (stereo unspecified)	2.06
O=[N+]([O-])c1ccc2[nH]ccc2c1	2.53
O=[N+]([O-])CCc1ccccc1	2.08
Cc1ccc(C(=O)c2ccncc2)cc1	2.51

SMILES	logP
CCOC(=O)C(=Cc1ccc(OC)c(OC)c1)C(=O)OCC	2.89
CCOC(=O)c1csc(C=Cc2ccc([N+](=O)[O-])o2)n1	1.3
COC(=O)c1cc(Oc2ccc(Cl)cc2Cl)ccc1[N+](=O)[O-]	4.48
Brc1cccs1	2.75
CCOC(=O)Cn1ccnc1C=Cc1ccc([N+](=O)[O-])o1	1.27
N#Cc1ccco1	0.96
OCc1ccoc1	0.3
N#CN=[N+]([O-])c1ccc(F)cc1	1.8
O=CC(CO)OC(C=O)n1cnc2c(O)ncnc21 (stereo unspecified)	-2.11
N#Cc1ccc(OC(=O)CNC(=O)c2ccccc2)cc1	2.1
COC(=O)c1ccccc1Cl	2.38
CC(=O)Nc1ccc(C(F)(F)F)cc1	2.52
CCOP(=S)(Oc1ccc(C#N)cc1)c1ccccc1 (stereo unspecified)	4.29
Brc1cccc(Br)c1	3.75
O=c1c2ccccc2sc2ccccc12	3.99
COc1ccc(OC(=O)N(C)C)cc1	1.53
CCOC(=O)C(=Cc1ccccc1OC)C(C)=O	2.39
O=c1cc(-c2ccc(O)cc2)oc2ccccc12	3.2
CC(C)C(=O)Nc1ccccc1	1.95
O=C(O)CSCc1ccccc1	2.1
O=c1[nH]c(=O)n([C@H]2C[C@H](O)[C@@H](CO)O2)cc1Br	-0.29
O=NN(Cc1ccccc1)c1ccccc1	3.38
Nc1cccc2cc3ccccc3nc12	3.26

Same assay, conditions: pH 0.7

SMILES	logD
O=C1CC(C(=O)O)Oc2ccccc21 (stereo unspecified)	1.26

Same assay, conditions: pH 1.0

SMILES	logD
COc1ccccc1OCC(=O)O	0.98

Same assay, conditions: pH 2.0

SMILES	logD
O=C(O)c1nccc2ccccc12	-0.53

Same assay, conditions: pH 2.2

SMILES	logD
CCCc1c(OCCCCc2nnn[nH]2)ccc(C(C)=O)c1O	3.82

Same assay, conditions: pH 5.4

SMILES	logD
O=C(c1ccccc1)c1cccc(NS(=O)(=O)C(F)F)c1	2.86

Same assay, conditions: pH 7.0

SMILES	logD
CC(=O)Nc1cccc(OC(C)=O)c1	1.03
CCOC(=O)c1ccc([N+](=O)[O-])cc1	2.33
CS(=O)(=O)c1cccc([N+](=O)[O-])c1	0.5

Same assay, conditions: pH 7.4

SMILES	logD
Cc1c(N(C)C)c(=O)[nH]c(=O)n1-c1ccccc1	1.4
Cc1c(N(C)C)c(=O)n(C)c(=O)n1-c1ccccc1	1.19
CCn1c(=O)c(N(C)C)c(C)n(-c2ccccc2)c1=O	2.29

Same assay, conditions: pH 8.9

SMILES	logD
NNc1ccccc1	1.25

Same assay, conditions: pH 9.0

SMILES	logD
NN1CCCCC1	-0.28

Same assay, conditions: pH 11.0

SMILES	logD
CCNCCc1cccnc1	0.54
NCc1cccnc1	-0.1

Same assay, conditions: pH 12.0

SMILES	logD
CCC[C@@H]1C[C@@H](C(=O)N[C@@H]([C@H]2O[C@H](SC)[C@H](O)[C@@H](O)[C@H]2O)[C@@H](C)O)N(CC)C1	1.02

Same assay, conditions: pH 13.0

SMILES	logD
CC(=O)c1cccc(N2C(N)=NC(N)=NC2(C)C)c1	-0.22
CC1(C)N=C(N)N=C(N)N1c1ccc(OCC(=O)N2CCOCC2)cc1	-1.18
NN(c1ccccc1)c1ccccc1	2.8
